The source made the active and inactive calls. The calls are words filed in the database; no cut-off is given here.
Legend:
[1] = Antioxidant activity assessed as Fe3+/ascorbic acid-induced hydroxyl radical scavenging activity at 100 uM after 30 mins; type: functional
[2] = tested on: Radical scavenging activity; assay: Antioxidant activity assessed as DPPH free radical scavenging activity at 50 uM after 20 to 60 mins by spectrophotometry; type: functional
[3] = tested on: Radical scavenging activity; assay: Antioxidant activity assessed as DPPH free radical scavenging activity at 100 uM by spectrophotometry; type: functional
[4] = tested on: Radical scavenging activity; assay: Antioxidant activity assessed as DPPH free radical scavenging activity at 100 uM after 20 mins by spectrophotometry; type: functional
Glycine max = assay: Inhibition of soybean lipoxygenase at 100 uM
[5] = Antioxidant activity assessed as xanthine-xanthine oxidase-induced superoxide anion radical scavenging activity at 0.1 mM after 10 mins by spectrophotometry; type: functional
[6] = tested on: Radical scavenging activity; assay: Antioxidant activity assessed as DPPH free radical scavenging activity at 100 uM after 60 mins by spectrophotometry; type: functional
[7] = Antioxidant activity against AAPH-induced lipid peroxidation at 100 uM by UV spectrophotometry; type: functional
Rattus norvegicus = assay: Antiinflammatory activity in Fisher 344 rat assessed as reduction of carrageenan-induced paw oedema at 0.01 mmol/kg, ip after 3.5 hrs; type: functional; design: scale not given: the % may be the effect or the level left
[8] = Inhibition of soybean lipoxygenase; design: species or system Glycine max

Compound | inhibition (Glycine max) | IC50 [8] [µM] | Activity [1] | Activity [2] | Activity [3] | Activity [4] | Activity [5] | Activity [6] [%] | Activity [7] | Activity (Rattus norvegicus) [%]
O=C(NNCCCc1ccccc1)c1cc2ccccc2[nH]1 | 33% |  | inactive | inactive | Active | 53% | inactive | 8.5 | 64% | 
CC(Cc1ccc(O)c(O)c1)C(C)Cc1ccc(O)c(O)c1 (centres undefined) |  |  |  |  |  | 81% |  | 83 |  | 
O=C(O)/C=C/c1ccc(O)c(O)c1 |  |  |  |  |  |  | 15% |  |  | 
NNCCCc1c[nH]c2ccccc12 | inactive |  | 34% | inactive |  | 85% | inactive | 99 | 25% | 
CCC(CC)NNC(=O)c1cc2ccccc2[nH]1 | 19% |  | 61% | inactive | Active | 11% | inactive | 16 | 30% | 
COc1ccc2c(c1)c(CC(=O)O)c(C)n2C(=O)c1ccc(Cl)cc1 [INDOMETHACIN] |  |  |  |  |  |  |  |  |  | 47
Cc1c(C)c2c(c(C)c1O)CCC(C)(C(=O)O)O2 (centres undefined) |  |  | 73% |  |  |  |  |  | 63% | 

Continued, in another order:

inhibition (Glycine max) | IC50 [8] [µM] | Compound | Activity [1] | Activity [2] | Activity [3] | Activity [4] | Activity [5] | Activity [6] [%] | Activity [7] | Activity (Rattus norvegicus) [%]
31% |  | C/C(CC(C)C)=N\NC(=O)c1cc2ccccc2[nH]1 | 74% | inactive | Active | 10% | inactive | 36 | 68% | 
inactive |  | NNC(=O)CCc1c[nH]c2ccccc12 | inactive | inactive |  | 12.5% | 67% | 56 | inactive | 
 | 62.5 | CC(C)=NNC(=O)c1cc2ccccc2n1C | 18% | inactive |  | inactive | 100% | 91 | 87% | 40
52% |  | C/C(Cc1ccccc1)=N/NC(=O)c1c[nH]c2ccc(O)cc12 | 2% | inactive |  | 65% | inactive | 80 | 50% | 
 | 62.5 | CCCCNNC(=O)c1cc2ccccc2[nH]1 | 90% | inactive | Active | 79% | 33% | 8 | 78% | 57
 | 78 | Cc1ccc(CNNC(=O)c2cc3ccccc3n2C)cc1 | inactive | inactive | Active | 66% | 67% | 61 | 85% | 
37% |  | O=C(NN=C1CCCC1)c1cc2ccccc2[nH]1 | 17% | inactive | Active | inactive | inactive | 38 | 65% | 

Reference: ChEMBL document CHEMBL2375310, “Analysis of the antioxidant properties of differently substituted 2- and 3-indolyl carbohydrazides and related derivatives” (Eur J Med Chem, 2013)
